Test results from PubChem BioAssay AID2060885 (Molecular Pharmacology Branch, DTP, NCI, 2025).

System: NCI-H23 complex spheroids with HUVEC/MSC, viability
Test: Anticancer human tumor NCI-H23 cell line growth inhibition [RAS];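 note: spheroids exposed to compound for 7 days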;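 for viability, T/C: 100% = DMSO vehicle control viability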
Conditions: for IC50: curve of first compound; for viability, T/C: stronger effect = lower value; active = viability on the fitted dose curve at most 10% of control; inactive = the rest
Summary of the method: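 Agents were tested in combination matrices in half-log decrements from a top concentration at or near clinical Cmax (10 microM if undetermined). Targets were multi-cell spheroids of tumour lines plus HUVEC and MSC stromal cells.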

[1] = second compound 0.00316 µM, first compound 0.0316 µM
[2] = second compound 0.00316 µM, first compound 0.1 µM
[3] = second compound 0.00316 µM, first compound 0.316 µM
[4] = second compound 0.00316 µM, first compound 1 µM
[5] = second compound 0.01 µM, first compound 0.0316 µM
[6] = second compound 0.01 µM, first compound 0.1 µM
[7] = second compound 0.01 µM, first compound 0.316 µM
[8] = second compound 0.01 µM, first compound 1 µM
[9] = second compound 0.0316 µM, first compound 0.0316 µM
[10] = second compound 0.0316 µM, first compound 0.1 µM
[11] = second compound 0.0316 µM, first compound 0.316 µM
[12] = second compound 0.0316 µM, first compound 1 µM
[13] = second compound 0.1 µM, first compound 0.0316 µM
[14] = second compound 0.1 µM, first compound 0.1 µM
[15] = second compound 0.1 µM, first compound 0.316 µM
[16] = second compound 0.1 µM, first compound 1 µM
[17] = second compound 0.316 µM, first compound 0.0316 µM
[18] = second compound 0.316 µM, first compound 0.1 µM
[19] = second compound 0.316 µM, first compound 0.316 µM
[20] = second compound 0.316 µM, first compound 1 µM
[21] = second compound 1 µM, first compound 0.0316 µM
[22] = second compound 1 µM, first compound 0.1 µM
[23] = second compound 1 µM, first compound 0.316 µM
[24] = second compound 1 µM, first compound 1 µM
[25] = second compound 0.00316 µM, first compound 3.16 µM
[26] = second compound 0.00316 µM, first compound 10 µM
[27] = second compound 0.01 µM, first compound 3.16 µM
[28] = second compound 0.01 µM, first compound 10 µM
[29] = second compound 0.0316 µM, first compound 3.16 µM
[30] = second compound 0.0316 µM, first compound 10 µM
[31] = second compound 0.1 µM, first compound 3.16 µM
[32] = second compound 0.1 µM, first compound 10 µM
[33] = second compound 0.316 µM, first compound 3.16 µM
[34] = second compound 0.316 µM, first compound 10 µM
[35] = second compound 1 µM, first compound 3.16 µM
[36] = second compound 1 µM, first compound 10 µM

CCN1CCN(Cc2ccc(Nc3ncc(F)c(-c4cc(F)c5nc(C)n(C(C)C)c5c4)n3)nc2)CC1 + C=CC(=O)N1CCN(c2nc(OCC3CCCN3C)nc3c(F)c(-c4nc(N)cc(C)c4C(F)(F)F)c(Cl)cc23)C(C)C1
inactive: viability, T/C (second compound 0.00316 µM, first compound 0.00316 µM) 55.6% | viability, T/C (second compound 0.00316 µM, first compound 0.01 µM) 58.2% | viability, T/C [1] 38.2% | viability, T/C [2] 26.9% | viability, T/C [3] 26.1% | viability, T/C [4] 23.9% | viability, T/C (second compound 0.01 µM, first compound 0.00316 µM) 49.9% | viability, T/C (second compound 0.01 µM, first compound 0.01 µM) 46.7% | viability, T/C [5] 30.1% | viability, T/C [6] 23.6% | viability, T/C [7] 17.4% | viability, T/C [8] 18.6% | viability, T/C (second compound 0.0316 µM, first compound 0.00316 µM) 44.4% | viability, T/C (second compound 0.0316 µM, first compound 0.01 µM) 37.3% | viability, T/C [9] 24.1% | viability, T/C [10] 21.8% | viability, T/C [11] 17.2% | viability, T/C [12] 20.1% | viability, T/C (second compound 0.1 µM, first compound 0.00316 µM) 36.4% | viability, T/C (second compound 0.1 µM, first compound 0.01 µM) 29.3% | viability, T/C [13] 23.2% | viability, T/C [14] 19.4% | viability, T/C [15] 19.4% | viability, T/C [16] 18.3% | viability, T/C (second compound 0.316 µM, first compound 0.00316 µM) 34.3% | viability, T/C (second compound 0.316 µM, first compound 0.01 µM) 31.7% | viability, T/C [17] 21.9% | viability, T/C [18] 20.5% | viability, T/C [19] 16.6% | viability, T/C [20] 17.2% | viability, T/C (second compound 1 µM, first compound 0.00316 µM) 28.7% | viability, T/C (second compound 1 µM, first compound 0.01 µM) 33.8% | viability, T/C [21] 26.2% | viability, T/C [22] 20.1% | viability, T/C [23] 17.8% | viability, T/C [24] 17.1%
15.3 nM: IC50 (second compound 0.00316 µM)
< 3.16 nM: IC50 (second compound 0.0316 µM) | IC50 (second compound 0.1 µM) | IC50 (second compound 0.316 µM) | IC50 (second compound 1 µM)
3.55 nM: IC50 (second compound 0.01 µM)

Cc1nc(N2CCC3(CC2)COC(C)C3N)c(CO)nc1Sc1ccnc(N)c1Cl (stereo unspecified) + C=CC(=O)N1CCN(c2nc(OCC3CCCN3C)nc3c(F)c(-c4nc(N)cc(C)c4C(F)(F)F)c(Cl)cc23)C(C)C1
< 31.6 nM: IC50 (second compound 0.00316 µM) | IC50 (second compound 0.01 µM) | IC50 (second compound 0.0316 µM) | IC50 (second compound 0.1 µM) | IC50 (second compound 0.316 µM) | IC50 (second compound 1 µM)
inactive: viability, T/C [1] 47.4% | viability, T/C [2] 48.5% | viability, T/C [3] 32% | viability, T/C [4] 27% | viability, T/C [25] 31.7% | viability, T/C [26] 25.4% | viability, T/C [5] 44.3% | viability, T/C [6] 42.3% | viability, T/C [7] 26.7% | viability, T/C [8] 28.5% | viability, T/C [27] 22.6% | viability, T/C [28] 16.4% | viability, T/C [9] 36% | viability, T/C [10] 33.6% | viability, T/C [11] 24.7% | viability, T/C [12] 26.7% | viability, T/C [29] 21.1% | viability, T/C [30] 20% | viability, T/C [13] 37.2% | viability, T/C [14] 35.5% | viability, T/C [15] 25.8% | viability, T/C [16] 23.9% | viability, T/C [31] 19.7% | viability, T/C [32] 17.2% | viability, T/C [17] 31.1% | viability, T/C [18] 31.6% | viability, T/C [19] 30.2% | viability, T/C [20] 23.2% | viability, T/C [33] 23.3% | viability, T/C [34] 17.5% | viability, T/C [21] 36.6% | viability, T/C [22] 32.8% | viability, T/C [23] 26.6% | viability, T/C [24] 18.6% | viability, T/C [35] 22.7% | viability, T/C [36] 17.9%

NC1c2ccccc2OC12CCN(c1cnc3c(N4CCCc5ncccc54)n[nH]c3n1)CC2 (stereo unspecified) + C=CC(=O)N1CCN(c2nc(OCC3CCCN3C)nc3c(F)c(-c4nc(N)cc(C)c4C(F)(F)F)c(Cl)cc23)C(C)C1
inactive: viability, T/C [1] 36.1% | viability, T/C [2] 31.4% | viability, T/C [3] 23.7% | viability, T/C [4] 20.7% | viability, T/C [25] 17.5% | viability, T/C [26] 12.2% | viability, T/C [5] 32.9% | viability, T/C [6] 29.2% | viability, T/C [7] 18.9% | viability, T/C [8] 16.9% | viability, T/C [27] 11.4% | viability, T/C [9] 27.9% | viability, T/C [10] 25% | viability, T/C [11] 18.2% | viability, T/C [12] 13.6% | viability, T/C [29] 11.8% | viability, T/C [13] 25% | viability, T/C [14] 21.6% | viability, T/C [15] 17.8% | viability, T/C [16] 14.8% | viability, T/C [31] 11.8% | viability, T/C [17] 23.1% | viability, T/C [18] 23.4% | viability, T/C [19] 19.4% | viability, T/C [20] 14.8% | viability, T/C [33] 12.2% | viability, T/C [34] 11.7% | viability, T/C [21] 26.8% | viability, T/C [22] 24.6% | viability, T/C [23] 20.1% | viability, T/C [24] 13.1% | viability, T/C [35] 12.8% | viability, T/C [36] 11.2%
< 31.6 nM: IC50 (second compound 0.00316 µM) | IC50 (second compound 0.01 µM) | IC50 (second compound 0.0316 µM) | IC50 (second compound 0.1 µM) | IC50 (second compound 0.316 µM) | IC50 (second compound 1 µM)
active: viability, T/C [28] 10.4% | viability, T/C [30] 10.1% | viability, T/C [32] 8.71%
